Reference: patent US11109538B2, “Method for producing galanthamine by a plant and electrical stimulation device” (Industrial Technology Research Institute, priority 2017, dated 2021)

Test system: Lycoris aurea
Experiment: Galanthamine release of plants subjected to chemical inducer treatment (LC-MS of lyophilized medium)
Format: in vivo
Conditions: for Amounts of galanthamine released into the medium: MS medium with 25 μM chemical inducer, whole plants of Lycoris aurea
Experimental: MS mediums containing chemical inducers (chitin (CA), salicylic acid (SA) and methyl jasmonate (MJ)) (final concentration of the chemical inducer is 25 μM) were prepared. Since the chemical inducers could not be high-strength autoclaved, after the preparations of the chemical inducers at room temperature were completed, sterilization by filtration was performed on the chemical inducers in a laminar flow. In the blank group, the medium contained no agent.
Healthy plants of Lycoris aurea with leaves and root with a bulb diameter of 0.6-0.8 cm were selected and withered epidermis on the bulb thereof was removed. The plant mentioned above was placed in a test tube having MS medium containing a chemical inducer and cultured under an illumination of 3000-4000 Lux with illumination time 16 hours an dark time 8 hours at an ambient temperature of 25-27° C.
30 mL of medium was recovered on the Day 0, Day 3, Day 7, Day 14, Day 28 and Day 35 of the culturing. The recovered medium was lyophilized to form a powder. A liquid chromatography-mass spectrometry analysis was performed on the obtained powder to determine the content of galanthamine therein to investigate the effect of the chemical stimulation treatment mentioned above on the plant that produces galanthamine and releases it into the medium.

Molecule	Amounts of galanthamine released into the medium (Day 0 of culturing) [ppm]	Amounts of galanthamine released into the medium (Day 3 of culturing) [ppm]	Amounts of galanthamine released into the medium (Day 7 of culturing) [ppm]	Amounts of galanthamine released into the medium (Day 14 of culturing) [ppm]	Amounts of galanthamine released into the medium (Day 28 of culturing) [ppm]	Amounts of galanthamine released into the medium (Day 35 of culturing) [ppm]	Effect on production and release of galanthamine for the plant (comparison of chemical inducers) (Table 2 and FIG. 7, 25 μM chemical inducer, Lycoris aurea)
CC/C=C\CC1C(=O)CCC1CC(=O)OC (centres unmarked) [Methyl jasmonate, methyl jasmonate]	0	0.0153	0.0312	0.0066	2.72	0.9	best effect
O=C(O)c1ccccc1O [Salicylic acid, salicylic acid]	0	0.0183	0.0077	0.0142	0.36	1.01	
chitin	0	0.0015	0.0001	0.74			
